Laboratory results published in patent US20130035329A1, “THERAPEUTICALLY ACTIVE COMPOSITIONS AND THEIR METHODS OF USE” (priority 2009, published 2013).
pIC50: −log10 of the molar value.

Target: IDH1 R132H (Homo sapiens, UniProt O75874, R132H)
Test: High Throughput Screening (HTS) for IDH1 R132H inhibitors (resazurin/NADPH fluorescence assay)
Type: biochemical
Settings: IDH1m; assay similar to Example 1; class symbols
Protocol: A compound described herein may be an inhibitor of IDH1m. […] B refers to an inhibitor of IDH1m with an IC50 between 1 μM and 50 μM. C refers to an inhibitor of IDH1m with an IC50 greater than 50 μM. D refers to a compound wherein an IC50 is not available.
Assays were conducted in a volume of 76 μl assay buffer (150 mM NaCl, 10 mM MgCl2, 20 mM Tris pH 7.5, 0.03% bovine serum albumin) as follows in a standard 384-well plate: To 25 ul of substrate mix (8 uM NADPH, 2 mM aKG), 1 μl of test compound was added in DMSO. The plate was centrifuged briefly, and then 25 μl of enzyme mix was added (0.2 μg/ml ICDH1 R132H) followed by a brief centrifugation and shake at 100 RPM. The reaction was incubated for 50 minutes at room temperature, then 25 μl of detection mix (30 μM resazurin, […]) was added and the mixture further incubated for 5 minutes at room temperature. The conversion of resazurin to resorufine was detected by fluorescent spectroscopy at Ex544 Em590 c/o 590.

IDH1 R132H, sequence (O75874 whole entry R132H): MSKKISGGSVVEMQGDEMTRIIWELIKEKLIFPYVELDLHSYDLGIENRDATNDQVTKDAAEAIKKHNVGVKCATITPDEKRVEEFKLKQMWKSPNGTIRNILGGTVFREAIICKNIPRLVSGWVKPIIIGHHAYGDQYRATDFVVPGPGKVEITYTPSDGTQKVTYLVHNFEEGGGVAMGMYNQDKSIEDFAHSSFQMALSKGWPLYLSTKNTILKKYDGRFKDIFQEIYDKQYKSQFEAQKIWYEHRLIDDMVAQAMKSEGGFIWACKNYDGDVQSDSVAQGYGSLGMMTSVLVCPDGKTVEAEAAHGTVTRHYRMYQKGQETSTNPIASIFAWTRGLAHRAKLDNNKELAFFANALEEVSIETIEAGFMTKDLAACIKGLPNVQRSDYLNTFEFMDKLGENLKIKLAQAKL

Row | Compound | pIC50
1 | CCCc1ccc(NS(=O)(=O)c2cccc(C(=O)N3CCN(c4ccccc4)CC3)c2)cc1 | 4.30 to 6.00
2 | Cc1ccc(S(=O)(=O)Nc2ccc(C(C)C)cc2)cc1C(=O)N1CCN(c2ccccc2)CC1 | 4.30 to 6.00
3 | COc1ccccc1N1CCCN(C(=O)c2cccc(S(=O)(=O)Nc3ccc(C(C)C)cc3)c2)CC1 | 4.30 to 6.00
4 | COc1ccccc1N1CCN(C(=O)c2cc(S(=O)(=O)Nc3ccc(OCc4cn(Cc5ccccc5)nn4)cc3)ccc2C)CC1 | 4.30 to 6.00
5 | COc1ccccc1N1CCN(C(=O)c2cc(S(=O)(=O)Nc3ccc(C)c4cccnc34)ccc2C)CC1 | 4.30 to 6.00
6 | CCCCc1ccc(C(=O)Nc2ccc(C)c(C(=O)N3CCN(c4ccccc4OC)CC3)c2)cc1 | 4.30 to 6.00
7 | CCCCc1ccc(OC(=O)Nc2ccc(C)c(C(=O)N3CCN(c4ccccc4OC)CC3)c2)cc1 | < 4.30
8 | Cc1ccc(S(=O)(=O)Nc2ccc(Cl)cc2)cc1C(=O)N1CCN(c2ccccn2)CC1 | < 4.30
9 | COc1ccccc1N1CCN(C(=O)c2cccc(S(=O)(=O)Nc3ccccc3F)c2)CC1 | < 4.30
10 | O=C(c1cccc(S(=O)(=O)Nc2ccccc2F)c1)N1CCN(c2ccccc2)CC1 | < 4.30
11 | COc1ccc(NS(=O)(=O)c2cccc(C(=O)N3CCN(c4ccccc4)CC3)c2)cc1 | < 4.30
12 | COc1ccc(NS(=O)(=O)c2cccc(C(=O)N3CCN(c4ccccc4OC)CC3)c2)cc1 | < 4.30
13 | CCOc1ccc(NS(=O)(=O)c2cccc(C(=O)N3CCCN(c4ccccc4OC)CC3)c2)cc1 | < 4.30
14 | Cc1ccc(S(=O)(=O)Nc2ccc(Cl)cc2)cc1C(=O)N1CCN(c2ccccc2)CC1 | < 4.30
15 | COc1ccccc1NS(=O)(=O)c1cccc(C(=O)N2CCCN(c3ccccc3OC)CC2)c1 | < 4.30
16 | Cc1cc(F)ccc1NS(=O)(=O)c1cccc(C(=O)N2CCN(c3ccccn3)CC2)c1 | < 4.30
17 | CCCc1ccccc1NS(=O)(=O)c1cccc(C(=O)N2CCN(c3ccccc3)CC2)c1 | 4.30 to 6.00
18 | CCOc1ccc(NS(=O)(=O)c2ccc(C)c(C(=O)N3CCN(c4ccccn4)CC3)c2)cc1 | < 4.30
19 | CCCCc1ccc(NS(=O)(=O)c2cccc(C(=O)N3CCN(c4ncc(C)cc4Cl)CC3)c2)cc1 | 4.30 to 6.00

Row | Compound | pIC50
20 | COc1ccccc1N1CCN(C(=O)c2cccc(NS(=O)(=O)c3cccc4cccnc34)c2)CC1 | < 4.30
21 | CCCCc1ccc(NS(=O)(=O)c2cccc(C(=O)N3CCN(c4ccccn4)CC3)c2)cc1 | 4.30 to 6.00
22 | CC(C)(C)c1ccc(NS(=O)(=O)c2cccc(C(=O)N3CCN(c4ccccc4)CC3)c2)cc1 | 4.30 to 6.00
23 | CCCCc1ccc(NS(=O)(=O)c2cccc(C(=O)N3CCN(c4ncccn4)CC3)c2)cc1 | 4.30 to 6.00
24 | CCCCc1ccc(NS(=O)(=O)c2cccc(C(=O)N3CCN(c4ncc(C(F)(F)F)cc4Cl)CC3)c2)cc1 | 4.30 to 6.00
25 | CCCCc1ccc(NS(=O)(=O)c2ccc(C)c(C(=O)N3CCN(C(=O)NCC(C)C)CC3)c2)cc1 | 4.30 to 6.00
26 | CCCCc1ccc(NS(=O)(=O)c2ccc(C)c(C(=O)N3CCN(Cc4cccc(C)c4)CC3)c2)cc1 | 4.30 to 6.00
27 | CCCCc1ccc(NS(=O)(=O)c2ccc(C)c(C(=O)N3CCN(C(=O)C4CC4)CC3)c2)cc1 | 4.30 to 6.00
28 | CCCCc1ccc(NS(=O)(=O)c2ccc(C)c(C(=O)N3CCN(C(=O)c4cscn4)CC3)c2)cc1 | 4.30 to 6.00
29 | CCCCc1ccc(NS(=O)(=O)c2ccc(C)c(C(=O)N3CCN(Cc4ccccc4C)CC3)c2)cc1 | 4.30 to 6.00
30 | CCCCc1ccc(NS(=O)(=O)c2ccc(C)c(C(=O)N3CCN(Cc4cc(C)c(C)cc4C)CC3)c2)cc1 | 4.30 to 6.00
31 | CCCCc1ccc(NS(=O)(=O)c2ccc(C)c(C(=O)N3CCN(C(=O)OCC)CC3)c2)cc1 | 4.30 to 6.00
32 | CCCCc1ccc(NS(=O)(=O)c2ccc(C)c(C(=O)N3CCN(CCCc4ccccc4)CC3)c2)cc1 | 4.30 to 6.00
33 | CCCCc1ccc(NS(=O)(=O)c2ccc(C)c(C(=O)N3CCN(c4cccc(C(F)(F)F)c4)CC3)c2)cc1 | 4.30 to 6.00
34 | COc1ccccc1N1CCN(C(=O)c2cc(S(=O)(=O)Nc3cccc4cccnc34)ccc2C)CC1 | 4.30 to 6.00
35 | COc1ccccc1N1CCN(C(=O)c2cc(S(=O)(=O)Nc3cccc4cc[nH]c34)ccc2C)CC1 | 4.30 to 6.00
36 | CCOC(=O)C(C)Oc1ccc(NS(=O)(=O)c2ccc(C)c(C(=O)N3CCN(c4ccccc4OC)CC3)c2)cc1 (stereo not drawn) | 4.30 to 6.00
37 | CCCCc1ccc(NS(=O)(=O)c2ccc(C)c(C(=O)N3CCN(c4ccnc(N(C)C)c4)CC3)c2)cc1 | 4.30 to 6.00
38 | CCCCc1ccc(NS(=O)(=O)c2ccc(C)c(C(=O)N3CCN(c4c(Cl)cccc4Cl)CC3)c2)cc1 | 4.30 to 6.00

Results, then the molecule that gave them:

Row | pIC50 | Compound
39 | 4.30 to 6.00 | CCCCc1ccc(NS(=O)(=O)c2ccc(C)c(C(=O)N3CCN(c4ccccn4)CC3)c2)cc1
40 | 4.30 to 6.00 | CCCCc1ccc(NS(=O)(=O)c2ccc(C)c(C(=O)N3CCN(c4ccncc4)CC3)c2)cc1
41 | 4.30 to 6.00 | CCCCc1ccc(NS(=O)(=O)c2cccc(C(=O)N3CCN(c4ccccc4OC)CC3)c2)cc1
42 | > 6.00 | CCCCc1ccc(NS(=O)(=O)c2ccc(C)c(C(=O)N3CCN(c4ccccc4Cl)CC3)c2)cc1
43 | 4.30 to 6.00 | CCCCc1ccc(NS(=O)(=O)c2ccc(C)c(C(=O)N3CCN(c4ccccc4-c4ccccc4)CC3)c2)cc1
44 | 4.30 to 6.00 | CCCCc1ccc(NS(=O)(=O)c2ccc(C)c(C(=O)N3CCN(c4ccccc4C(C)C)CC3)c2)cc1
45 | 4.30 to 6.00 | CCCCc1ccc(NS(=O)(=O)c2ccc(N3CCOCC3)c(C(=O)N3CCN(c4ccccc4OC)CC3)c2)cc1
46 | 4.30 to 6.00 | CCCCc1ccc(NS(=O)(=O)c2ccc(N3CCCC3)c(C(=O)N3CCN(c4ccccc4OC)CC3)c2)cc1
47 | > 6.00 | CCCCc1ccc(NS(=O)(=O)c2ccc(C)c(C(=O)N3CCN(c4ccccc4OC)CC3)c2)cc1
48 | 4.30 to 6.00 | CCCCOc1ccc(NS(=O)(=O)c2ccc(C)c(C(=O)N3CCN(c4ccccc4OC)CC3)c2)cc1
49 | 4.30 to 6.00 | CCCOc1ccc(NS(=O)(=O)c2ccc(C)c(C(=O)N3CCN(c4ccccc4OC)CC3)c2)cc1
50 | 4.30 to 6.00 | COc1ccccc1N1CCN(C(=O)c2cc(S(=O)(=O)Nc3ccc(OCC4CC4)cc3)ccc2C)CC1
51 | 4.30 to 6.00 | COc1ccccc1N1CCN(C(=O)c2cc(S(=O)(=O)Nc3ccc(C)cc3)ccc2C)CC1
52 | 4.30 to 6.00 | CCc1ccc(NS(=O)(=O)c2ccc(C)c(C(=O)N3CCN(c4ccccc4OC)CC3)c2)cc1
53 | 4.30 to 6.00 | COc1ccc(NS(=O)(=O)c2ccc(C)c(C(=O)N3CCN(c4ccccc4OC)CC3)c2)cc1
54 | 4.30 to 6.00 | CCCCc1ccc(NS(=O)(=O)c2ccc(C)c(C(=O)N3CCN(c4cccnc4OC)CC3)c2)cc1
55 | 4.30 to 6.00 | CCCc1ccc(NS(=O)(=O)c2ccc(C)c(C(=O)N3CCN(c4ccccc4OC)CC3)c2)cc1
56 | 4.30 to 6.00 | COc1ccccc1N1CCN(C(=O)c2cc(S(=O)(=O)Nc3ccc(CCc4ccccc4)cc3)ccc2C)CC1
57 | 4.30 to 6.00 | CCCCc1ccc(NS(=O)(=O)c2ccc(F)c(C(=O)N3CCN(c4ccccc4OC)CC3)c2)cc1
58 | 4.30 to 6.00 | CCCCc1ccc(NS(=O)(=O)c2cccc(C(=O)N3CCN(c4ccccc4OC)CC3)c2)c(C(=O)O)c1
59 | 4.30 to 6.00 | CCCCc1ccc(NS(=O)(=O)c2ccc(C)c(C(=O)N3CCN(c4ccc(F)cc4)CC3)c2)cc1
60 | 4.30 to 6.00 | CCCCc1ccc(NS(=O)(=O)c2ccc(C)c(C(=O)N3CCN(c4ccc(OC)c(F)c4)CC3)c2)cc1
61 | 4.30 to 6.00 | CCCCc1ccc(NS(=O)(=O)c2ccc(C)c(C(=O)N3CCN(c4ccccc4OCc4ccccc4)CC3)c2)cc1
62 | 4.30 to 6.00 | CCCCc1ccc(NS(=O)(=O)c2ccc(C)c(C(=O)N3CCN(c4ccccc4Oc4ccccc4)CC3)c2)cc1
63 | 4.30 to 6.00 | CCOC(=O)COc1ccc(NS(=O)(=O)c2ccc(C)c(C(=O)N3CCN(c4ccccc4OC)CC3)c2)cc1
